Key:
[1] = system: butyryl coA transferase (BCoAT) gene; assay: Degenerate quantitative PCR for BCoAT on fecal specimens; format: in vivo, mice
Protocol: (§1) Quantitative PCR assays to assess for taxa of interest were performed on a Rotor Gene 3000 quantitative PCR cycler using the LightCycler FastStart DNA Master PLUS SYBR Green I kit (Roche, Indianapolis Ind.) according to the manufacturer's instructions. Quantitative assays to assess total microbial census were performed for Bacteria using 16S rRNA and Fungi using ITS sequences. Quantitative assays were also performed for butyryl CoA transferase (BCoAT) and formyltetrahydrofolate synthetase (FTHFS). Values were normalized using total Bacterial 16S copies prior to analyses.
(§2) Because of the central role of short-chain fatty acid synthesis in colonic metabolism (Wong et al., J Clin Gastroenterol 40, 235-243 (2006)), the effect of STAT exposure on the prokaryotic genes butyryl coA transferase (BCoAT) and formyltetrahydrofolate synthetase (FTHFS) that play roles in butyrate and acetate synthesis was examined Degenerate quantitative PCRs for BCoAT and FTHFS (primers listed in Table 1) were performed on fecal specimens in STAT (penicillin) and control mice. […] These findings provide evidence that STAT exposure perturbs not only GI microbiome, composition but also abundance of genes critical to host energy homeostasis.

[2] = Sub-therapeutic antibiotic treatment (STAT) in drinking water: growth and body composition by weighing, DEXA and MRI; format: in vivo, C57BL6/J mice; details: vs control
Protocol: Low dose penicillin (6.67 mg/L) was administered in the drinking water of C57BL6/J mice either at birth (day 0, antibiotics initially received through maternal milk) or at weaning (day 28); control mice received no antibiotics. All mice were given ad libitum access to food and water, and mice were fed either standard chow (13.5% kcal from fat) or high fat diet (45% kcal from fat). Mice were weighed daily and body composition was analyzed by dual energy x-ray absorptiometry (DEXA) and magnetic resonance imaging (MRI.)
C57B6 breeder mice (F0) were obtained at 6 weeks of age from Jackson Laboratory. One male was mated with 2 females to create the F1 generation. Males and females were separated after pregnancy was detected. On day 14 of pregnancy, STAT breeder females were exposed to penicillin so that their offspring would be exposed to antibiotics from birth; control breeders had no antibiotic exposure. From the F1 generation, penicillin-treated and control mice at or near the median weight of their group were selected at 12 weeks of age to become breeders, and to produce the F2 generation. Breeder mice and offspring were maintained on their current treatment (either control or penicillin). […]
The litters were monitored closely and the following information was collected: mating pairs, date of birth, litter number, number born, number weaned, animal number, gender, and generation number. […]
Mice were anesthetized using isofluorane. Total body mass, lean mass, fat mass, body fat percentage, and bone mineral density were measured using the Lunar PIXImus densitometer. […]
Mice were anaesthetized with isofluorane. Body temperature and breathing rate were continuously monitored throughout the scan, and body temperature was maintained by flowing warm air through the coil. […] Total body fat percentage was calculated by merging the two images to generate a fat fraction image. […] The fat volume was calculated by multiplying total volume of the VOI by the mean fat %. To determine liver adiposity, 5 consecutive slices of the liver were traced to generate a liver VOI, and the average percent fat was recorded. […]

PPARγ = assay: Hepatic qPCR normalized to GAPDH; format: in vivo, mice; details: liver qPCR, vs control
Description: (§3) Total DNA and total RNA was extracted from the mouse liver by the Wizard® Genomic DNA purification Kit (Promega) and RNeasy Mini Kit (Qiagen), respectively, according to the manufacturers instructions. Total RNA was reverse transcribed to cDNA using the Verso™ cDNA Synthesis Kit (Thermo Scientific). To generate standards for each target gene expression analysis, the DNA or cDNA region of interest was PCR-amplified and the PCR product was cloned using the pGEM-Teasy vector system (Promega). qPCR was performed with a LightCycler 480 SYBR Green I Master (Roche) and run in a LightCycler 480 system (Roche). Target mRNA was normalized to GAPDH mRNA as an internal control in each sample.

[3] = system: insulin receptor substrate 2 (IRS-2); assay: Hepatic qPCR normalized to GAPDH; format: in vivo, mice; details: liver, vs control; same direction as microarrays
Description: as §3

SREBP1c = assay: Hepatic qPCR normalized to GAPDH; format: in vivo, mice; details: liver, vs control; same direction as microarrays
Description: as §3

[4] = system: fatty acid translocase (FAT, CD36); assay: Hepatic qPCR normalized to GAPDH; format: in vivo, mice; details: liver qPCR, vs control
Description: as §3

liver gene expression = assay: Hepatic gene expression profiling by microarray; format: in vivo, mice
Description: as §3
Expression profiling of the STAT and control animal groups (n=6 each) was performed using the Affymetrix Genechip system (Affymetrix, Santa Clara, Calif.). Total RNA quality and quantity were determined using the Agilent 2100 Bioanalyzer and Nanodrop ND-1000. Total RNA (100 ng) was used to prepare cDNA following the Affymetrix 3′IVT Express Kit labeling protocol (Affymetrix). Standardized array processing procedures recommended by Affymetrix were performed, including hybridization, fluidics processing and scanning of the Affymetrix MG-430 2.0 arrays. GeneSpring GX11 software (Agilent Technologies, Santa Clara, Calif.) was used to normalize the raw data (Affymetrix CEL files) by Robust Multichip Average algorithm (RMA).

[5] = system: formyltetrahydrofolate synthetase (FTHFS) gene; assay: Degenerate quantitative PCR for FTHFS on fecal specimens; format: in vivo, mice; details: vs control
Protocol: as §1, §2

## penicillin
[1]; at 3 weeks
  BCoAT gene copies: 193±22 normalized copies
[1]; by 7 weeks, vs control
  BCoAT gene copies: normalized
[2]; F1 generation, female mice
  Weight at 21 days: significantly decreased
[2]; F1 generation, sex not given
  Weight at 21 days: no difference
[2]; F2 generation, both females and males
  Weight at 21 days: significantly increased
PPARγ
  PPARγ normalized gene counts: significantly higher
[3]
  IRS-2 qPCR result: not statistically significant
SREBP1c
  SREBP1c qPCR result: not statistically significant
[4]
  FAT normalized gene counts: significantly higher
Liver gene expression; >45,000 genes surveyed, vs control
  Genes significantly up- or down-regulated by t-test or PTM: 466 genes
Liver gene expression; t-test and PTM
  Genes significantly differed from controls by both tests: 397 genes
Liver gene expression; vs control
  Genes differentially expressed, fatty acid metabolism pathways: 22 genes
  Genes differentially expressed, lipid metabolic processes: 47 genes
[5]; at 3 weeks
  FTHFS gene copies: no significant differences
[5]; by 7 weeks
  FTHFS gene copies: significantly higher

Source: patent publication US8951512B2, “Methods for treating bone disorders by characterizing and restoring mammalian bacterial microbiota” (New York University, priority 2010, dated 2015)
